Measurements reported in patent publication US9555137B2, “Uses of labeled HSP90 inhibitors” (Sloan-Kettering Institute for Cancer Research, priority 2011, dated 2017).

How the values were obtained:
HSP90 = assay: 131I-PU-H71 saturation binding in intact cancer cells; type: cell-based
From the text: The solutions were shaken in an orbital shaker and after 1 hr the cells were isolated and washed with ice cold Tris-buffered saline using a Brandel cell harvester. […] To calculate the percentage of HSP90, cellular HSP90 expression was quantified by using standard curves created of recombinant HSP90 purified from HeLa cells (Stressgen#ADI-SPP-770).

359 kinases = assay: scanMAX kinase screen (Ambit); type: binding; details: 10 μM
Raf-1, Akt [1] = assay: onco-client protein degradation in MDA-MB-468 cells (Western blot); type: cell-based; details: Homo sapiens, in vitro, 24 h
Raf-1, Akt [2] = assay: pharmacodynamic analysis of MDA-MB-468 tumors (Western blot); type: in vivo, mice; details: Mus musculus, MDA-MB-468, 24 h
MDA-MB-468 tumors = assay: efficacy study in MDA-MB-468 xenografted tumors; type: in vivo, mice; details: 75 mg/kg, 1× week
Protocol: Mice (n=5) bearing MDA-MB-468 tumors reaching a volume of 100-150 mm^3 were treated i.p. (i.p.) using different doses and schedules, as indicated. Tumor volume was determined by measurement with Vernier calipers, and tumor volume was calculated as the product of its length×width^2×0.4. Tumor volume was expressed on indicated days as the median tumor volume ±SD indicated for groups of mice. Percent (%) tumor growth inhibition values were measured on the final day of study for drug-treated compared with vehicle treated mice and are calculated as 100×{1−[(TreatedFinal day−TreatedDay 1)/(ControlFinal day−ControlDay 1)]}. Tumor regression values were determined by calculating the ratio of median tumor volumes at the time when treatment was initiated to median tumor volume on the final day of study for a given treatment group. Percent (%) tumor regression is 100×[1−(TreatedFinal day/TreatedDay 1)].

MDA-MB-468 cells = assay: apoptosis of MDA-MB-468 cells (Ethidium Bromide/Acridine Orange); type: cell-based, human; details: 48 h
From the text: As noted in FIG. 40B, several tumors are more sensitive to HSP90 inhibition than predicted from the preliminary data generated on cell lines.

[3] = [124I]-PU-H71 PET in cancer patients, tumor exposure to PU-H71; type: in vivo, human
[4] = system: breast cancer tumor specimens; assay: ex vivo sensitivity of breast cancer fresh tissue sections to PU-H71; type: cell-based, human; details: TNBC resistant (PT#14)
From the text: From preliminary analyses we have learned that fresh tissue slicing provides a quick and more efficient ex vivo method for HSP90 inhibition evaluation than primary cell isolation. In addition, it preserves the cancer cells in the endogenous environment of the surrounding tissue. This is important since the interaction between stromal cells and tumor cells is known to play a major role in cancer growth and progression. In this method, the tissue (i.e. lesion) is placed in a plastic mold and embedded in 6% agarose. The agarose-embedded tissue is then mounted on the stage of the Vibratome that is submersed in a chilled reservoir (for tissue preservation) containing MEM with 1% penicillin/streptomycin. The tissue is then sliced using metal blades producing serial sections of the lesion that are 200 μm thick. Each section (minus the surrounding agarose-embedding media) is immediately placed in a 24-well tissue culture plate containing MEM with 1% penicillin/streptomycin. From a 5 mm×5 mm piece of tissue approximately 25 sections are produced. This allows for replicate analyses of tissue sections treated with a minimum of 4 doses of the HSP90 inhibitor and one with vehicle only. Replicates can be assayed by both IHC as well as viability assays (automatic plate reader or cytospin preparation) once tissue section undergoes enzymatic dissociation by brief exposure to dispase. […]

caspase-3,7 = assay: caspase 3,7 activation assay in AML cell lines; type: cell-based; details: 24 h
Protocol: A ten-fold, in MOLM-13 and M0-91, and two-fold, in Kasumi-1 and SKNO-1, increase in caspase-3,7 activation was observed as early as 24 h. Essentially no live cells were detected for the M0-91 cell line after 48 h of HSP90 inhibitor treatment. In the most sensitive cells, MOLM-13 and M0-91, apoptosis was associated with downregulation of the anti-apoptotic molecule Bcl-xL.
Cells were plated and treated as described in the growth inhibition assay section. Following a 24 h or 48 h exposure of cells to Hsp90 inhibitors, 100 μL buffer containing 10 mM Hepes, pH 7.5, 2 mM EDTA, 0.1% CHAPS, 0.1 mg/mL PMSF, Complete Protease Inhibitor mix (#1697498; Roche), and the caspase substrate Z-DEVD-R110 (#R22120; Molecular Probes) at 25 μM was added to each well. Plates were placed on an orbital shaker to promote cell lysis and reaction. The fluorescence signal of each well was measured in an Analyst GT (Molecular Dev ices) microplate reader (excitation 485 nm; emission at 530 nm). The percentage increase in caspase-3,7 activity was calculated by comparison of the fluorescence reading obtained from treated versus control cells. All experimental data were analyzed using SOFTmax Pro 4.3.1 and plotted using Prism 4.0 (Graphpad Software Inc., San Diego, Calif.).

p-AKT, p-STAT5 = assay: pharmacodynamic study in M0-91 tumors xenografted in mice; type: in vivo
Protocol: We next analyzed the pharmacodynamic effects of HSP90 inhibition in both HEL and M0-91 tumors xenografted in mice. Unlike the cultured cells, the use of the in vivo model allows real-time monitoring of HSP90-dependent pathways inhibition.
Four- to 6-week-old nu/nu athymic female mice were obtained from Taconic Farms. Experiments were carried out under an Institutional Animal Care and Use Committee-approved protocol, and institutional guidelines for the proper and humane use of animals in research were followed. HEL and M0-91 cells were subcutaneously implanted in the right flank of mice using a 20-gauge needle and allowed to grow. […] For this assay, tumors were allowed to reach 6-8 mm in diameter before treatment. […] Tumors were homogenized and proteins analyzed by western blot as described above.

[5] = mouse, in vivo
in vivo = details: mouse
[6] = PU-H71 tumor concentrations in MDA-MB-468 tumor-bearing mice (PET-predicted, simulated, LC-MS/MS); details: 75 mg/kg 1× week

CC(C)NCCCn1c(Sc2cc3c(cc2I)OCO3)nc2c(N)ncnc21 [PU-H71]
fraction of total cellular HSP90 bound (HSP90; K562 and other established t(9;22)+ CML cell lines): 10.3-23% | fraction of total cellular HSP90 bound (HSP90; MDA-MB-468 cells): approximately 30% | kinase hits (359 kinases): Only SNARK (NUAK family SNF1-like kinase 2) | EC50 (Raf-1, Akt [1]; read-out: EC50 Akt, onco-client protein degradation): 150 ± 20 nM | EC50 (Raf-1, Akt [1]; read-out: EC50 Raf-1, onco-client protein degradation): 130 ± 20 nM | EC50 (Raf-1, Akt [2]; read-out: EC50 Akt, tumor concentration by PET vs pharmacodynamic effect): 90 ± 80 nM | EC50 (Raf-1, Akt [2]; read-out: EC50 Raf-1, tumor concentration by PET vs pharmacodynamic effect): 240 ± 30 nM | anti-tumor effect (MDA-MB-468 tumors): significant tumor growth inhibition | cells undergoing apoptosis (MDA-MB-468 cells; 0.5 μM): about 50% | cells undergoing apoptosis (MDA-MB-468 cells; about 5 μM): about 100% | tumor AUC0-336h ([3]; 10 mg/m^2 once a week for two weeks): 54 μM-h | tumor exposure ([3]; left lung, 80 mg/m2 2× week): above 760 uM-h | apoptosis [4]: no apoptosis noted at any of the tested concentrations | increase in caspase-3,7 activation (caspase-3,7; Kasumi-1 and SKNO-1): two-fold | increase in caspase-3,7 activation (caspase-3,7; MOLM-13 and M0-91): ten-fold | duration of apoptosis after one dose (p-AKT, p-STAT5): 96 h | AUC tumor relative to AUC blood [5]: 15 fold | area under the blood time-activity concentration curve [5]: 0.78 % ID/g-h | area under the tumor time-activity concentration curve [5]: 11.4 % ID/g-h | concentration at 24 h (in vivo; in vivo, 5 mg/kg): 430 nM | concentration at 24 h (in vivo; tumor, 5 mg/kg): 370 nM | concentration at 24 h (in vivo; tumor, 25 mg/kg): 1830 nM | concentration at 24 h (in vivo; tumor, 50 mg/kg): 3670 nM | concentration at 48 h (in vivo; tumor, 75 mg/kg): 3500 ± 270 nM | concentration at 96 h (in vivo; tumor, 75 mg/kg): 1290 ± 290 nM | concentration at 120 h (in vivo; tumor, 75 mg/kg): 690 ± 250 nM | actual tumor concentration by LC-MS/MS ([6]; 24 h after last dose): 5.53±0.26 | actual tumor concentration by LC-MS/MS ([6]; 96 h after last dose): 3.09±1.40
